Experimental data: publication PMC5271370, “A High-Content Assay Enables the Automated Screening and Identification of Small Molecules with Specific ALDH1A1-Inhibitory Activity” (PLoS ONE, 2017)
Like-named read-outs stand apart in the source and are kept apart here.

Columns and labels:
MIA PaCa-2 cells = assay: 1,536-well high-content imaging ALDEFLUOR assay, MIA PaCa-2; format: cell-based, human; conditions: for Activity in ALDEFLUOR assay, MIA PaCa-2: semi-automated, active = high quality concentration response curve and >50% efficacy, up to 45.8 μM
Description: (§1) To miniaturize the assay into a 1536-well format amenable to qHTS, we chose MIA PaCa-2 and HT-29 because of their high levels of ALDH1A1(Fig 1A). Utilizing the 8-step protocol described by Ming et al. as a starting point, we developed a “semi-automated” protocol described in S1 Table. Briefly, we plated 1,000 cells in a volume of 5 μL/well into black-optical quality clear bottom 1,536-well plates, and allowed cells to attach overnight. Culture media was subsequently removed by inverting and centrifuging plates using a plate adaptor as previously described and replaced with 5 μL of a solution of either 500 or 100 nM BAAA substrate in ALDEFLUOR buffer. To identify cells based on nuclear staining, we also included 0.5 nM Hoechst 33342 in the above buffer. […] After incubating the plate for 30 minutes at 37°C, 5% CO2, 85% RH, the remaining substrate was removed by centrifugation as above and replaced with 3 μL of ALDEFLUOR buffer. Fluorescence was subsequently imaged using the IN Cell Analyzer 2200 high-content widefield fluorescence based imager and the resulting images were quantified using the IN Cell Investigator v1.6.2 analysis software (see Experimental Procedures for analysis details).
(§2) The ALDEFLUOR kit was purchased from […] Technologies (Vancouver, Canada; #01700). Cells (5 μL) were dispensed into black, optical quality (cyclic olefin copolymer) clear bottom, medium binding TC treated 1,536-well plates (Aurora Microplates, Whitefish MT) using a Multidrop Combi dispenser (ThermoFisher) and incubated overnight (37°C, 5% CO2, 85% RH). Media was subsequently removed by centrifuging plates upside down using a plate adaptor to collect media. A solution of BAAA substrate ([…] Technologies) and Hoechst 33342 (ThermoFisher, final concentrations of 500 nM and 0.5 nM, respectively) in ALDEFLUOR buffer ([…] Technologies #01700) was dispensed onto cells using a Multidrop Combi followed by immediate transfer (23 nL) of compound or control solutions using a Wako Pin-tool (final percentage of DMSO in the cell plates was 0.5%). Unless otherwise noted, all compounds were assayed as 16-point dilutions spanning a final concentration range of 1.4 nM to […]. […] Cells were incubated for 30 minutes or the indicated amount of time at 37°C, 5% CO2, 85% RH to allow the conversion of BAAA into BAA. Supernatant was subsequently removed by centrifugation as described above, then ALDEFLUOR buffer (3 μl) was dispensed by Multidrop Combi before imaging on an IN Cell 2200 (GE Healthcare).
(§3) The above assay was modified for an online robotic screening system. After cell plating and overnight incubation, 4 μL of media were removed using a 64-tip metal aspirator head on a Wako aspirator station, leaving 1 μL remaining in the well, followed by a 4 μL dispense of BAAA and Hoechst 33342 in ALDEFLUOR buffer, for a final concentration of 500 nM and 0.5 nM, respectively. Immediately following the dispense, 23 nL of compound or control solutions were transferred using a Wako Pin-tool. Cells were incubated for 30 minutes at 37°C, 5% CO2, 85% RH, followed by a 4 μL media removal using the Wako aspirator, and a subsequent 3 μL addition of ALDEFLUOR buffer. Plates were then immediately read on the IN Cell 2200 as described below.
(§4) For images captured on the IN Cell 2200 widefield automated microscope, a 10x 0.45 NA Plan Apo objective lens was used to capture the entire well of the 1,536-well plate using standard DAPI (390/18x, 432/48m) and FITC (475/28x, 525/48m) filter sets at 50 msec and 100 msec exposures, respectively. Images were subsequently analyzed using IN Cell Investigator v1.6.2 analysis software’s canned Multi-Target Analysis algorithm (GE Healthcare). Hoechst stained nuclei were identified using top hat segmentation with a minimum area of 75 μm^2 and sensitivity of 93. […]

HT-29 cells = assay: 1,536-well high-content imaging ALDEFLUOR assay, HT-29; format: cell-based, human; conditions: for IC50: read-out: Aldefluor IC50 HT-29; for Activity in ALDEFLUOR assay, HT-29: semi-automated, active = high quality concentration response curve and >50% efficacy, up to 45.8 μM
Description: as §1, §2, §3, §4

[1] = Homo sapiens, MIA PaCa-2, 0.5 h, validation set, semi-automated protocol, 16-point dilution, 1,000 cells/well, 500 nM BAAA, 30 min, read-out: Aldefluor IC50 MIA PaCa-2
[2] = validation set, semi-automated protocol, 16-point dilution, 1,000 cells/well, 500 nM BAAA, 30 min, read-out: Aldefluor IC50 MIA PaCa-2
[3] = Homo sapiens, HT-29, 0.5 h, validation set, semi-automated protocol, 16-point dilution, 1,000 cells/well, 500 nM BAAA, 30 min
[4] = validation set, semi-automated protocol, 16-point dilution, 1,000 cells/well, 500 nM BAAA, 30 min

Row | Molecule | IC50 (MIA PaCa-2 cells; [2]) [µM] | IC50 (HT-29 cells; [4]) [µM] | Activity in ALDEFLUOR assay, MIA PaCa-2 (MIA PaCa-2 cells) | Activity in ALDEFLUOR assay, HT-29 (HT-29 cells) | further results
1 | CC(C)=CCCC(C)=CC=O (mixture of isomers) [Citral] | 27.8 | 26.6 |  |  | IC50 (MIA PaCa-2 cells; [1]): ~27 µM; IC50 (HT-29 cells; [3]): ~27 µM
2 | CC(C)N(C(=O)CCl)c1ccccc1 [Propachlor] |  |  |  |  | IC50 (MIA PaCa-2 cells; Homo sapiens, MIA PaCa-2, read-out: ALDEFLUOR IC50 MIA PaCa2): 0.3 µM
3 | COc1ccc(C(=O)CCN(C)C)cc1F [Aldi-2] | 18 | 17.5 |  |  | 
4 | C#CCN(C)Cc1ccccc1 [Pargyline] |  |  | inactive | active | IC50 (MIA PaCa-2 cells; Homo sapiens, MIA PaCa-2, fully automated protocol-2 with two washes, read-out: IC50 of BAA signal reduction, automated protocol): ~5 µM; IC50 (HT-29 cells; [3]): 33.5 µM
5 | CC(C)(C)c1ccc(S(=O)(=O)/C=C/C#N)cc1 [Bay-11-7085] | 20 | 14.3 |  |  | 
6 | CCOc1ccc(NCC(=O)Nc2ccc(Cl)cc2C)cc1 [CID 725345] | 9.46 | 14.5 |  |  | 
7 | O=c1c(-c2ccc(O)cc2)coc2cc(O[C@@H]3O[C@H](CO)[C@@H](O)[C@H](O)[C@H]3O)ccc12 [Daidzin] |  |  | tested negative | tested negative | 
8 | COc1cccc2cc(C(=O)CC3(O)C(=O)N(Cc4ccccc4)c4ccccc43)c(=O)oc12 (stereo not drawn) [CID 2929292] |  |  | tested negative | tested negative | 
9 | CVT-10216 |  |  | tested negative | tested negative | 
10 | CCN(CC)c1ccc(C=O)cc1 [DEAB, 4-N,N-diethylaminobenzaldehyde] | 3.44 | 1.69 |  |  | 
11 | Nc1ccccc1C(=O)CC(N)C(=O)O (stereo not drawn) [Kynurenine] |  |  | tested negative | tested negative | 
12 | Cc1nc2ccccc2n1S(=O)(=O)c1ccc(F)cc1 [CB7] |  |  | tested negative | tested negative | 
13 | C[S+](=O)([O-])c1ccc(Cn2c3c(c4cc(F)cc(F)c42)CCCC3CC(=O)O)cc1 [L-670596] |  |  |  |  | IC50 (MIA PaCa-2 cells; Homo sapiens, MIA PaCa-2, retest of screen hits, 11-point dose response 0.77 nM to 45.8 μM, read-out: ALDEFLUOR IC50 MIA PaCa2): ~10 µM; IC50 (MIA PaCa-2 cells; retest of screen hits, 11-point dose response 0.77 nM to 45.8 μM, read-out: ALDEFLUOR IC50 MIA PaCa2): 10.8 µM
14 | O=C1Nc2ccccc2C1=O [indoline-2,3-dione] |  |  |  |  | IC50 (MIA PaCa-2 cells; [1]): 12 µM; IC50 (HT-29 cells; [3]): 17.8 µM
15 | Cc1cc2c(C(C)C)c(O)c(O)c(C=O)c2c(O)c1-c1c(C)cc2c(C(C)C)c(O)c(O)c(C=O)c2c1O [Gossypol] |  |  | inactive | active | IC50 (HT-29 cells; Homo sapiens, HT-29, 0.5 h): 16.5 µM
16 | CCN(CC)C(=S)SSC(=S)N(CC)CC [Disulfiram] |  |  |  |  | IC50 (MIA PaCa-2 cells; [1]): 11 µM; IC50 (HT-29 cells; [3]): 10.9 µM
